Data from publication PMC11785675, “Phase Ib study of the oral PI3Kδ inhibitor linperlisib in patients with advanced solid tumors” (International Journal of Clinical Oncology, 2024).

System: patients with advanced solid tumors
Conditions: 80 mg/day oral
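Also: phase Ib open-label single-arm trial, once-daily dosing in 28-day cycles, adverse events graded by NCI CTCAE v5.0, recorded until at least 30 days post last dose, incidence as patient counts and percentages.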

Protocol: This phase Ib, single-arm, open-label, multi-center clinical trial recruited patients with advanced or metastatic solid tumors from eight sites in China.
The main exclusion criteria included prior use of PI3K targeted agents and clinically symptomatic central nervous system metastasis or meningeal metastasis.
Patients received oral linperlisib 80 mg once per day, taken with warm water either 1 h prior to or 2 h after a meal every day, in a 28-day cycle. Dose adjustments, including holds and reductions, were mandated for grade 3/4 hematologic and grade 3 non-hematologic toxicity. Treatment with linperlisib continued until disease progression, intolerable toxicity, withdrawal of informed consent, death or any other conditions deemed by the investigator to warrant drug discontinuation.
Physical examination, assessment of ECOG performance status, clinical laboratory evaluations, electrocardiogram, and other safety evaluations were conducted to assess safety. AEs were graded according to the National Cancer Institute Common Terminology Criteria for Adverse Events (CTCAE), Version 5.0. All AEs were recorded from the time of signing the informed consent to at least 30 days after the last dose, and were followed until resolution or stabilization. Patients underwent radiographic assessments every 8 weeks by enhanced computed tomography or magnetic resonance imaging according to RECIST 1.1.
The primary endpoint was safety as assessed by monitoring the frequency, duration, and severity of AEs. Secondary endpoints were efficacy endpoints, including ORR, DCR, and progression-free survival (PFS).
Baseline data are presented descriptively. ORR is determined by the proportion of patients who achieve a confirmed complete response (CR) or partial response (PR) as the best overall response, and is presented with CIs. PFS and overall survival (OS) curves are generated using the Kaplan–Meier method. The incidence of AEs and serious AEs (SAEs) are reported as numbers and percentages.

Structure (SMILES): COc1ncc(-c2nc(N3CCOCC3)nc3c(CN4CCC(C(C)(C)O)CC4)cc(F)cc23)cc1NS(C)(=O)=O [linperlisib]
- Grade ≥ 3 TEAE anemia (94 patients): 3.2%
- Grade ≥ 3 TEAE diarrhea (94 patients): 4.3%
- Grade ≥ 3 TEAE increased ALT (94 patients): 3.2%
- Grade ≥ 3 TEAE increased AST (94 patients): 3.2%
- Grade ≥ 3 TEAE increased blood alkaline phosphatase (94 patients): 3.2%
- Grade ≥ 3 TEAE neutropenia (94 patients): 3.2%
- Patients who suspended linperlisib due to TRAEs (94 patients): 19.1%
- Patients who terminated linperlisib due to vomiting, esophagitis, gastritis, or drug eruption (94 patients): 2.1%
- Patients who withdrew from the trial because of TRAEs (94 patients): 5.3%
- Patients with SAEs related to linperlisib (94 patients): 10.6%
- Patients with TEAEs of grade 3 or greater (94 patients): 45.7%
- Patients with TRAEs of grade 3 or greater (94 patients): 28.7%
- Patients with at least one TEAE (94 patients): 97.9%
- Patients with at least one treatment-related AE (TRAE) (94 patients): 89.4%
- Patients with dose reduction (elevated γ-glutamyltransferase and diarrhea) (94 patients): 2.1%
- TEAE abdominal pain, all grades (94 patients): 11 (11.7) n (%)
- TEAE abdominal pain, grade ≥ 3 (94 patients): 1 (1.1) n (%)
- TEAE anemia, all grades (94 patients): 20 (21.3) n (%)
- TEAE anemia, all grades irrespective of causality (94 patients): 21.3%
- TEAE anemia, grade ≥ 3 (94 patients): 3 (3.2) n (%)
- TEAE asthenia, all grades (94 patients): 15 (16.0) n (%)
- TEAE asthenia, grade ≥ 3 (94 patients): 0 n (%)
- TEAE decreased appetite, all grades (94 patients): 24 (25.5) n (%)
- TEAE decreased appetite, all grades irrespective of causality (94 patients): 25.5%
- TEAE decreased appetite, grade ≥ 3 (94 patients): 1 (1.1) n (%)
- TEAE diarrhea, all grades (94 patients): 11 (11.7) n (%)
- TEAE diarrhea, grade ≥ 3 (94 patients): 4 (4.3) n (%)
- TEAE elevated γ-glutamyltransferase, all grades (94 patients): 18 (19.1) n (%)
- TEAE elevated γ-glutamyltransferase, grade ≥ 3 (94 patients): 2 (2.1) n (%)
- TEAE hypercholesterolemia, all grades (94 patients): 12 (12.8) n (%)
- TEAE hypercholesterolemia, grade ≥ 3 (94 patients): 1 (1.1) n (%)
- TEAE hypertriglyceridemia, all grades (94 patients): 10 (10.6) n (%)
- TEAE hypertriglyceridemia, grade ≥ 3 (94 patients): 0 n (%)
- TEAE hypoalbuminemia, all grades (94 patients): 15 (16.0) n (%)
- TEAE hypoalbuminemia, grade ≥ 3 (94 patients): 0 n (%)
- TEAE hyponatremia, all grades (94 patients): 15 (16.0) n (%)
- TEAE hyponatremia, grade ≥ 3 (94 patients): 1 (1.1) n (%)
- TEAE increased ALT, all grades (94 patients): 21 (22.3) n (%)
- TEAE increased ALT, all grades irrespective of causality (94 patients): 22.3%
- TEAE increased ALT, grade ≥ 3 (94 patients): 3 (3.2) n (%)
- TEAE increased AST, all grades (94 patients): 25 (26.6) n (%)
- TEAE increased AST, all grades irrespective of causality (94 patients): 26.6%
- TEAE increased AST, grade ≥ 3 (94 patients): 3 (3.2) n (%)
- TEAE increased blood alkaline phosphatase, all grades (94 patients): 15 (16.0) n (%)
- TEAE increased blood alkaline phosphatase, grade ≥ 3 (94 patients): 3 (3.2) n (%)
- TEAE increased blood bilirubin, all grades (94 patients): 16 (17.0) n (%)
- TEAE increased blood bilirubin, grade ≥ 3 (94 patients): 1 (1.1) n (%)
- TEAE increased blood creatinine, all grades (94 patients): 18 (19.1) n (%)
- TEAE increased blood creatinine, grade ≥ 3 (94 patients): 2 (2.1) n (%)
- TEAE increased blood lactate dehydrogenase, all grades (94 patients): 13 (13.8) n (%)
- TEAE increased blood lactate dehydrogenase, grade ≥ 3 (94 patients): 0 n (%)
- TEAE leukopenia, all grades (94 patients): 16 (17.0) n (%)
- TEAE leukopenia, grade ≥ 3 (94 patients): 1 (1.1) n (%)
- TEAE nausea, all grades (94 patients): 16 (17.0) n (%)
- TEAE nausea, grade ≥ 3 (94 patients): 0 n (%)
- TEAE neutropenia, all grades (94 patients): 13 (13.8) n (%)
- TEAE neutropenia, grade ≥ 3 (94 patients): 3 (3.2) n (%)
- TEAE protein urine present, all grades (94 patients): 10 (10.6) n (%)
- TEAE protein urine present, grade ≥ 3 (94 patients): 0 n (%)
- TEAE proteinuria, all grades (94 patients): 25 (26.6) n (%)
- TEAE proteinuria, all grades irrespective of causality (94 patients): 26.6%
- TEAE proteinuria, grade ≥ 3 (94 patients): 0 n (%)
- TEAE pyrexia, all grades (94 patients): 10 (10.6) n (%)
- TEAE pyrexia, grade ≥ 3 (94 patients): 0 n (%)
- TEAE rash, all grades (94 patients): 14 (14.9) n (%)
- TEAE rash, grade ≥ 3 (94 patients): 2 (2.1) n (%)
- TEAE vomiting, all grades (94 patients): 15 (16.0) n (%)
- TEAE vomiting, grade ≥ 3 (94 patients): 2 (2.1) n (%)
- TEAE weight loss, all grades (94 patients): 20 (21.3) n (%)
- TEAE weight loss, all grades irrespective of causality (94 patients): 21.3%
- TEAE weight loss, grade ≥ 3 (94 patients): 0 n (%)
- TRAE decreased appetite (94 patients): 18.1%
- TRAE elevated γ-glutamyltransferase (94 patients): 16.0%
- TRAE increased ALT (94 patients): 18.1%
- TRAE increased AST (94 patients): 22.3%
- TRAE proteinuria (94 patients): 21.3%
- TRAEs leading to death (94 patients): No TRAEs leading to death were reported
- Patients with SAEs of grade 3 or greater (94 patients, 29 SAEs): 27.7%
- Patients who discontinued treatment due to AEs (94 patients, data cutoff April 03, 2023): 21.3%
- Patients with SAEs (94 patients, thirty-five SAEs): 30.9%
- Incidence of hyperglycemia related to linperlisib (all grades): 2.1%
- Incidence of diarrhea, colitis, and hepatotoxicity (compared with other PI3K inhibitors): very low
